“Also recorded” adds a separate entry of the source.
Columns and labels:
psoriasis patients = conditions: cited from earlier work
[1] = tested on: healthy human skin transplanted onto beige-SCID mice; assay: Humanized psoriasis model: healthy human skin xenotransplants on beige-SCID mice injected with psoriatic patients' PBMCs; type: in vivo, mouse
Text: In this model, psoriasis is induced in xenotransplants of healthy human skin transplanted onto beige severe combined immunodeficiency (SCID) mice followed by intradermal (i.d.) injection of IL-2 enriched Peripheral Blood Mononuclear Cells (PBMCs) isolated from blood of psoriasis patients (Nickoloff, 1995; Wrone-Smith, 1996 Gilhar et al., 2002, 2006, 2011). The activity of these compounds was compared to that of Enbrel, a TNF inhibitor which is an approved biological drug for treatment of psoriasis. As a control for model robustness, we used dexamethasone, a steroid with suppressive effects on inflammatory cytokines and chemokines such as TNF-alpha and interferon-gamma which cause severe psoriasis. All treatments were administered intradermally, except for dexamethasone which was given topically.
Study Protocol: A) Healthy human skin pieces with a width of 0.4 mm and surface area of 1.5×1.5 cm were provided from residual skin of routine plastic surgery procedures from the Plastic Surgery Department of the Rambam Medical Center, Israel. In addition, 20 mL blood samples were taken from psoriatic patients. B) Seventy (70) beige-severe combined immunodeficient mice (SCID) (weight˜20-25 g) were included in this study. Normal healthy human donor skin was transplanted onto the beige-SCID mice as previously described (Nickoloff et al., 1995; Wrone-Smith, 1996; Gilhar et al., 2002, 2006, 2011; Kalish et al., 2009) and the mice were divided into 7 groups. C) Peripheral Blood Mononuclear Cells (PBMCs) isolated from psoriatic patients' blood were cultured in the presence of IL-2 [Prospec, 100 U/mL of RPMI 1640 media, 10% human AB serum (Sigma, St. Louis, Mo.), 1% glutamine, 1% antibiotics (media components; Biological Industries, Kibbutz Beit Haemeck, Israel)] for 14 days, as previously described (Gilhar et al, 2002). D) Four weeks following engraftment, each mouse was injected intra-dermally (i.d.) into the grafted skin lesion, with 1×10^7 activated allogeneic enriched PBMCs from psoriatic patients (FIG. 20). Cells from different psoriasis patients were equally distributed between treatment groups so that each patient is represented in each treatment group. E) On the day of PBMCs injection into the skin grafts, mice were divided randomly into treatment groups (n=9-10 mice per group) and administration of all drugs started (FIG. 20). All tested compounds including the vehicle were given intradermally (intralesional), three times a week, except for dexamethasone which was given topically for 14 consecutive days (Table 3).
F) Twenty eight days after starting the injections and treatment, skin was harvested (FIG. 20). Grafts were analyzed for the following psoriatic parameters by histology: epidermal thickening (acanthosis), suprapapillary epidermal thinning (papillomatosis), hyperkeratosis, parakeratosis, orthokeratosis, agranulosis-hypogranulosis, appearance of neutrophils in the upper spinous layer or in the corneal cell layer—Munro microabscess, regular elongation of rete ridges, angiogenesis, edema and dilated tortuous blood vessels in the dermal papilla and mononuclear cell infiltrate in the papillary dermis. Epidermal thickness was measured as detailed below, and HLA-DR, ICAM-1, Ki-67 and immune infiltrates (anti-CD3 stain) were evaluated by immunohistochemistry (IHC).
The entire skin graft was excised and placed in 10% formal saline overnight. Then, the specimens were place in 70% ethanol and were embedded according to the standard H&E protocol. Histological assessment of the skin grafts was performed by light microscopy and evaluated by two blinded observers [the second observer evaluated random slides (about 25% of all slides) to compare the data obtained by the first observer. […] Epidermal thickness was determined with an ocular micrometer at a minimum of 50 points along the epidermis selected to represent points of maximal and minimal thickness.
Representative grafts were allocated for IHC analysis. […]

male DBA-1 mice = assay: Established collagen-induced arthritis (CIA), therapeutic regimen; type: in vivo, mouse
Protocol: Bovine type II collagen (CII) (RUNMC in house production, batch 03-04-08) at a concentration of 2 mg/ml in acetic acid 0.05M was emulsified in equal volumes of Freund's complete adjuvant (2 mg/ml of Mycobacterium tuberculosis strain H37Ra; Difco, Detroit, Mich.).
On day 0, 10-12 week old male DBA-1 mice (Janvier Elevage, France) (n=95) were immunized i.d. at the base of the tail with 100 μg of bovine CII. On day 21, mice received an intraperitoneal booster injection of 50 μg of CII dissolved in phosphate buffered saline (PBS), and the onset of arthritis occurred a few days after this booster.
Joint inflammation in each paw was scored visually, using a scale of 0-2 per paw with a maximal score of 8 per animal: 0=non inflamed, 1=mild inflammation, 1.5=marked inflammation, and 2=severe inflammation. Scoring was performed three times a week.
Treatment was started in established CIA early after onset of disease (i.e. therapeutic regimen), when the macroscopic scores per animal were between 0.25 and 1.25 (on a scale of 0-8). The i.p. injections were given three times per week for two weeks, after which the study was terminated and mice were terminally bled to collect serum. Thereafter, the knee and ankle joints were collected and stored in formalin. Histology was scored for inflammation and destruction on an arbitrary scale of 0-3, for five different parameters: • Joint inflammation • Cartilage proteoglycan (PG) depletion • Chondrocyte death • Cartilage erosion • Bone erosion
1. Negative control: PBS 2. Negative control mIgG2A (Bioxcell, BE0085): 10 mg/kg 3. C1ORF32 ECD-Fc (SEQ ID NO:42): 10 mg/kg 4. C1ORF32 ECD-Fc (SEQ ID NO:42): 5 mg/kg 5. Positive control: Enbrel (Wyeth, F01421) 5 mg/kg
Joints were fixed for at least 4 days in 4% formaldehyde, decalcified in 5% formic acid, and subsequently dehydrated and embedded in paraffin. Standard frontal sections of 7 μm were mounted on SuperFrost slides (Menzel-Glaser, Braunschweig, Germany). Haematoxylin and eosin (H&E) staining was performed to study joint inflammation. The severity of inflammation in the joints was scored on a scale of 0-3 (0=no cells, 1=mild cellularity, 2=moderate cellularity, and 3=maximal cellularity). To study proteoglycan (PG) depletion from the cartilage matrix, sections were stained with safranin O (SO) followed by counterstaining with fast green. Depletion of PG was determined using an arbitrary scale of 0-3, ranging from normal, fully stained cartilage to destained cartilage, fully depleted of PGs. Chondrocyte death was scored on a scale of 0-3 ranging from no loss of chondrocyte nuclei to complete empty cartilage surface. The degree of cartilage surface erosion was scored on a scale of 0-3, ranging from no damage to complete loss of articular cartilage. Bone destruction was graded separately on a scale of 0-3, ranging from no damage to the complete loss of bone structure. Histopathological changes in the joint were scored on three semiserial sections of the joint spaced 70 μm apart. Scoring was performed in a blindfolded manner.
Statistical analysis: Disease course data was analyzed using one-way ANOVA with repeated measures, with a Bonferroni's post-test of selected pairs to determine statistical differences between C1ORF32 ECD-Fc (SEQ ID NO:42) and Enbrel treated mice, each as compared to Control Ig (IgG2a) treated group.

[2] = 28 days after start of treatment

Enbrel
patients achieving 75% improvement in the psoriasis area-and-severity index (PASI 75) (psoriasis patients; at week 12): Forty nine | patients achieving PASI 90 (psoriasis patients; clinical trials): 22% | Healthy Skin (number of grafts) [1, 2]: 3/9 | Psoriasiform Skin (number of affected grafts, histological evaluation) [1, 2]: 6/9 | Total No. of Healthy Grafts (%) [1, 2]: 33% | proliferation index (% Ki-67 positive cells) in the xenografted skin ([1]; IHC, vs vehicle treated group): trend of decrease in proliferation index | Epidermal thickness of graft ([1]; Source of graft (Patient)): 683 μm | Epidermal thickness of graft ([1]; Source of graft (Patient) B): 658 μm | Epidermal thickness of graft ([1]; Source of graft (Patient) C): 770 μm | Epidermal thickness of graft ([1]; Source of graft (Patient) D): 679 μm | Epidermal thickness of graft ([1]; Source of graft (Patient) E): 678 μm | Epidermal thickness of graft ([1]; Source of graft (Patient) G1): 830 μm | Epidermal thickness of graft ([1]; Source of graft (Patient) H): 496 μm | Epidermal thickness of graft ([1]; Source of graft (Patient) K): 296 μm | Epidermal thickness of graft ([1]; Source of graft (Patient) P): 492 μm | Epidermal thickness of grafts, Mean ([1]; mean of 9-10 mice, PBS mean 682): 620 μm | epidermal thickness compared with the vehicle-treated group ([1]; one-tailed t-Test): no substantial effect on epidermal thickness; also recorded: no significant reduction in epidermal thickness | bone erosions (histology) (male DBA-1 mice; 5 mg/kg, day 14): significant reduction of bone erosions | other histological parameters of inflammation and cartilage damage (male DBA-1 mice; 5 mg/kg, day 14): only a trend for protection | arthritis (macroscopic) scores (male DBA-1 mice; positive control, 5 mg/kg i.p. 3x/wk for 2 wks): not as potent in reducing the arthritis scores as expected

— patent US20170275344A1, “POLYPEPTIDES AND USES THEREOF AS A DRUG FOR TREATMENT OF AUTOIMMUNE DISORDERS” (Compugen Ltd., priority 2014, published 2017)
